In data set [1] the test system is RAW264.7. The data set can be described thus: Inhibition of lipopolysaccharide-induced nitric oxide production in mouse RAW264.7 cells by Griess reagent based assay. The data set is classed as functional, cell-based.
The test system of data set [2] is RAW264.7. Description: Toxicity in lipopolysaccharide-induced mouse RAW264.7 cells by MTT-based colorimetric assay. The data set is classed as cell-based.

In data set [1], `COc1cc2c(c3c1C(=O)C[C@H](c1ccccc1)O3)C=CC(C)(CCC=C(C)C)O2` (stereo partly specified) gave an IC50 of 10.6 µM. Besides, the Activity result in data set [2] is “Non-Toxic”. In data set [1], `COc1cc2c(c3c1C(=O)C[C@@H](c1ccccc1)O3)C=CC(C)(CCC=C(C)C)O2` (stereo partly specified) yielded an IC50 of 13.5 µM. The Activity result in data set [2] is “Non-Toxic”. For `COc1cc2c(c3c1C(=O)C[C@H](c1ccccc1)O3)C=CC(C)(CC/C=C(\C)CCC=C(C)C)O2` (stereo partly specified), in that order: 26.1 µM and “Non-Toxic”. For `COc1cc2c(c3c1C(=O)C[C@@H](c1ccc(O)cc1)O3)C=CC(C)(CCC=C(C)C)O2` (stereo partly specified) the same measures were 14 µM and “Non-Toxic”. For `COc1cc2c(c3c1C(=O)C[C@H](c1ccc(O)cc1)O3)C=CC(C)(CCC=C(C)C)O2` (stereo partly specified), in that order: 16.2 µM and “Non-Toxic”.

For `COc1cc2c(c3c1C(=O)C[C@@H](c1ccc(O)cc1)O3)C=CC(C)(CC/C=C(\C)CCC=C(C)C)O2` (stereo partly specified), in data set [1], the concentration for half-maximal inhibition (IC50) came to 39.2 µM. Besides, the Activity entry in data set [2] is reported as “Non-Toxic”. In data set [1], `COc1cc2c(c3c1C(=O)C[C@@H](c1ccccc1)O3)C=CC(C)(CC/C=C(\C)CCC=C(C)C)O2` (stereo partly specified) had a 50% inhibitory concentration (IC50) of 28.7 µM. Also, the Activity result in data set [2] was “Non-Toxic”. With `N=C(N)NN` [PIMAGEDINE], the midpoint of inhibition in data set [1], the IC50, lay at 21.7 µM. In data set [1], `COc1cc2c(c3c1C(=O)C[C@H](c1ccc(O)cc1)O3)C=CC(C)(CC/C=C(\C)CCC=C(C)C)O2` (stereo partly specified) came in with an IC50 of 41.5 µM. The Activity entry in data set [2] was “Non-Toxic”.

In data set [1], `COc1cc2c(c(O)c1C(=O)/C=C/c1ccc(O)cc1)C=CC(C)(CC/C=C(\C)CCC=C(C)C)O2` (stereo unspecified) yielded an IC50 of 30.6 µM. The Activity entry in data set [2] was “Non-Toxic”. For `COc1cc2c(c(O)c1C(=O)/C=C/c1ccccc1)C=CC(C)(CC/C=C(\C)CCC=C(C)C)O2` (stereo unspecified) the same measures were 13.5 µM and “Non-Toxic”.

The values above are taken from ChEMBL document CHEMBL4339242, “Pyranoflavanones and Pyranochalcones from the Fruits of Amomum tsao-ko” (J Nat Prod, 2019).
